We go through 7 cell lines from the supplement of paper PMC10307832.

What all share (experiment): relative viability (nuclei count vs DMSO), 5 days (fraction); higher = more cells survive
Compound in experiment [1]: c1ccc2c(CCNc3ccc(Nc4ccncc4)cc3)c[nH]c2c1 [Serdemetan] + CS(=O)(=O)N1CCN(Cc2cc3nc(-c4cccc5[nH]ncc45)nc(N4CCOCC4)c3s2)CC1 [Pictilisib] (partner 1 µM)
Summed up:
(§1)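 Cells from lung cancer lines were seeded into 1536-well plates and, one day later, dosed by pin tool. Treatments were either a single drug or a fixed dose of an anchor drug with five library-drug doses (not always all listed) in √10 steps. After 5 days, nuclei were stained in a one-step fixation (final 0.05% Triton X-100, 1% formaldehyde, 1 ug/ml Hoechst) and counted on 4× images, and relative viability is the treated-to-vehicle nuclei ratio, as the median of duplicate plates.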

Compound in experiment [2]: c1ccc2c(CCNc3ccc(Nc4ccncc4)cc3)c[nH]c2c1 [Serdemetan] + O=C(c1cc(Cc2n[nH]c(=O)c3ccccc23)ccc1F)N1CCN(C(=O)C2CC2)CC1 [Olaparib] (partner 8 µM)
Summed up:
as §1

Compound in experiment [3]: c1ccc2c(CCNc3ccc(Nc4ccncc4)cc3)c[nH]c2c1 [Serdemetan] + CC(=O)c1c(C)c2cnc(Nc3ccc(N4CCNCC4)cn3)nc2n(C2CCCC2)c1=O [Palbociclib] (partner 0.5 µM)
Summed up: as §1

Compound in experiment [4]: C1CC(C2=C(C1)C3=C(N2)C=CC(=C3)Cl)C(=O)N [Selisistat] + CC(=O)c1c(C)c2cnc(Nc3ccc(N4CCNCC4)cn3)nc2n(C2CCCC2)c1=O [Palbociclib] (partner 0.5 µM)
Summed up: as §1

In the case of NCI-H838, the relative viability in experiment [1] (first compound 0.04 µM) worked out at 0.395; in experiment [1] (first compound 0.1265 µM) it was 0.508; in experiment [1] (first compound 0.4 µM), 0.507; in experiment [1] (first compound 1.265 µM), 0.438; in experiment [1] (first compound 4 µM), 0.549; in experiment [2] (first compound 0.04 µM), 0.739. Moreover, the relative viability in experiment [2] (first compound 0.1265 µM) came out at 0.759; in experiment [2] (first compound 0.4 µM), 0.671; in experiment [2] (first compound 1.265 µM) it was 0.669; in experiment [2] (first compound 4 µM), 0.874; in experiment [3] (first compound 0.04 µM), 0.212; in experiment [3] (first compound 0.1265 µM) it was 0.221. Moreover, the relative viability in experiment [3] (first compound 0.4 µM) is 0.243; in experiment [3] (first compound 1.265 µM), 0.232; in experiment [3] (first compound 4 µM) it was 0.23; in experiment [4] (first compound 0.4 µM), 0.208; in experiment [4] (first compound 1.265 µM) it was 0.223; in experiment [4] (first compound 4 µM), 0.185. Further, the results for the relative viability in experiment [4] (first compound 12.65 µM) and in experiment [4] (first compound 40 µM) were 0.242 and 0.206, respectively.

NCI-H1355: the relative viability in experiment [1] (first compound 0.04 µM) was determined as 0.456; in experiment [1] (first compound 0.1265 µM) it was 0.491; in experiment [1] (first compound 0.4 µM), 0.405; in experiment [1] (first compound 1.265 µM), 0.445; in experiment [1] (first compound 4 µM) it was 0.435; in experiment [2] (first compound 0.04 µM), 0.672. Further, the relative viability in experiment [2] (first compound 0.1265 µM) amounted to 0.709; in experiment [2] (first compound 0.4 µM), 0.648; in experiment [2] (first compound 1.265 µM) it was 0.471; in experiment [2] (first compound 4 µM), 0.566; in experiment [3] (first compound 0.04 µM), 0.381; in experiment [3] (first compound 0.1265 µM), 0.381. In addition, the relative viability came to 0.366 in experiment [3] (first compound 0.4 µM); 0.371 in experiment [3] (first compound 1.265 µM); 0.366 in experiment [3] (first compound 4 µM); 0.432 in experiment [4] (first compound 0.4 µM); 0.401 in experiment [4] (first compound 1.265 µM); 0.389 in experiment [4] (first compound 4 µM). Moreover, the figures for the relative viability in experiment [4] (first compound 12.65 µM) and in experiment [4] (first compound 40 µM) were 0.438 and 0.437, respectively.

Turning to NCI-H1395, the relative viability was determined as 0.574 in experiment [1] (first compound 0.04 µM); 0.619 in experiment [1] (first compound 0.1265 µM); 0.676 in experiment [1] (first compound 0.4 µM); 0.485 in experiment [1] (first compound 1.265 µM); 0.475 in experiment [1] (first compound 4 µM); 0.445 in experiment [2] (first compound 0.04 µM). In addition, the relative viability in experiment [2] (first compound 0.1265 µM) worked out at 0.442; in experiment [2] (first compound 0.4 µM), 0.443; in experiment [2] (first compound 1.265 µM), 0.478; in experiment [2] (first compound 4 µM), 0.399; in experiment [3] (first compound 0.04 µM), 0.605; in experiment [3] (first compound 0.1265 µM) it was 0.643. In addition, the relative viability in experiment [3] (first compound 0.4 µM) came to 0.626; in experiment [3] (first compound 1.265 µM), 0.555; in experiment [3] (first compound 4 µM), 0.436; in experiment [4] (first compound 0.4 µM), 0.579; in experiment [4] (first compound 1.265 µM) it was 0.664; in experiment [4] (first compound 12.65 µM), 0.6. Besides, in experiment [4] (first compound 40 µM), the relative viability is 0.55.

For NCI-H1437, the relative viability is 0.469 in experiment [1] (first compound 0.04 µM); 0.409 in experiment [1] (first compound 0.1265 µM); 0.454 in experiment [1] (first compound 0.4 µM); 0.492 in experiment [1] (first compound 1.265 µM); 0.342 in experiment [1] (first compound 4 µM); 0.661 in experiment [2] (first compound 0.04 µM). Further, the relative viability in experiment [2] (first compound 0.1265 µM) was 0.612; in experiment [2] (first compound 0.4 µM), 0.62; in experiment [2] (first compound 1.265 µM), 0.677; in experiment [2] (first compound 4 µM), 0.537; in experiment [3] (first compound 0.04 µM), 0.289; in experiment [3] (first compound 0.1265 µM) it was 0.32. Besides, the relative viability in experiment [3] (first compound 0.4 µM) is 0.334; in experiment [3] (first compound 1.265 µM), 0.359; in experiment [3] (first compound 4 µM) it was 0.315; in experiment [4] (first compound 0.4 µM), 0.325; in experiment [4] (first compound 1.265 µM), 0.282; in experiment [4] (first compound 4 µM) it was 0.227. Also, the relative viability was 0.213 in experiment [4] (first compound 12.65 µM) and 0.242 in experiment [4] (first compound 40 µM).

Take NCI-H1650: the relative viability in experiment [1] (first compound 0.04 µM) is 0.57; in experiment [1] (first compound 0.1265 µM), 0.585; in experiment [1] (first compound 0.4 µM), 0.475; in experiment [1] (first compound 1.265 µM) it was 0.41; in experiment [1] (first compound 4 µM), 0.441; in experiment [2] (first compound 0.04 µM) it was 0.692. Besides, the relative viability in experiment [2] (first compound 0.1265 µM) stood at 0.781; in experiment [2] (first compound 0.4 µM), 0.802; in experiment [2] (first compound 1.265 µM), 0.671; in experiment [2] (first compound 4 µM), 0.419; in experiment [3] (first compound 0.04 µM), 0.318; in experiment [3] (first compound 0.1265 µM), 0.275. For the same cell line, the relative viability in experiment [3] (first compound 0.4 µM) is 0.282; in experiment [3] (first compound 1.265 µM) it was 0.257; in experiment [3] (first compound 4 µM), 0.262; in experiment [4] (first compound 0.4 µM) it was 0.362; in experiment [4] (first compound 1.265 µM), 0.301; in experiment [4] (first compound 4 µM), 0.357. Further, the relative viability turned out to be 0.364 in experiment [4] (first compound 12.65 µM) and 0.334 in experiment [4] (first compound 40 µM).

Turning to NCI-H1651, the relative viability in experiment [1] (first compound 0.04 µM) was found to be 0.434; in experiment [1] (first compound 0.1265 µM), 0.496; in experiment [1] (first compound 0.4 µM), 0.433; in experiment [1] (first compound 1.265 µM), 0.456; in experiment [1] (first compound 4 µM) it was 0.23; in experiment [2] (first compound 0.04 µM), 0.179. In addition, the relative viability in experiment [2] (first compound 0.1265 µM) came out at 0.165; in experiment [2] (first compound 0.4 µM), 0.159; in experiment [2] (first compound 1.265 µM), 0.131; in experiment [2] (first compound 4 µM) it was 0.141; in experiment [3] (first compound 0.04 µM) it was 0.51; in experiment [3] (first compound 0.1265 µM) it was 0.499. Besides, the relative viability in experiment [3] (first compound 0.4 µM) stood at 0.523; in experiment [3] (first compound 1.265 µM), 0.358; in experiment [3] (first compound 4 µM), 0.29; in experiment [4] (first compound 0.4 µM) it was 0.508; in experiment [4] (first compound 1.265 µM) it was 0.532; in experiment [4] (first compound 4 µM), 0.499. The results for the relative viability in experiment [4] (first compound 12.65 µM) and in experiment [4] (first compound 40 µM) were 0.474 and 0.517, respectively.

With NCI-H1666, the relative viability worked out at 0.412 in experiment [1] (first compound 0.04 µM); 0.413 in experiment [1] (first compound 0.1265 µM); 0.525 in experiment [1] (first compound 0.4 µM); 0.531 in experiment [1] (first compound 1.265 µM); 0.465 in experiment [1] (first compound 4 µM); 0.735 in experiment [2] (first compound 0.04 µM). The relative viability in experiment [2] (first compound 0.1265 µM) amounted to 0.701; in experiment [2] (first compound 0.4 µM), 0.668; in experiment [2] (first compound 4 µM), 0.678; in experiment [3] (first compound 0.04 µM), 0.645; in experiment [3] (first compound 0.1265 µM) it was 0.655; in experiment [3] (first compound 0.4 µM), 0.63. The relative viability in experiment [3] (first compound 4 µM) came to 0.66; in experiment [4] (first compound 0.4 µM) it was 0.658; in experiment [4] (first compound 1.265 µM) it was 0.613; in experiment [4] (first compound 4 µM), 0.642; in experiment [4] (first compound 12.65 µM), 0.659; in experiment [4] (first compound 40 µM), 0.611.
